Results taken from patent US20190008810A1, “METHOD FOR PREVENTION, TREATMENT AND ALLEVIATION OF INFECTIOUS DISEASES AND DISORDERS” (REPLICON HEALTH OY, priority 2016, published 2019).
Like-named read-outs stand apart in the source and are kept apart here.

Columns and labels:
[1] = test system: severe IBD; assay type: in vivo, human
Text: During the year following acute bowels infection and inflammation described in above (Example 1 e) they were placed by a specialist MD into queue for demanding operation to remove inflammation prone part from their bowels. While waiting for this operation (roughly a year from above described previous serious bowels inflammation (IBD)) S4 got serious IBD again. This happened as a follow up of two-week business trip during which the diet was not at all optimal and working was rather intensive.
By Saturday the symptoms were so severe that S4 could not walk properly. It was decided that […] rests for the weekend and goes to a doctor on Monday morning.
Because based on Example 1 e it is already known that the DGA Activation can efficiently reduce IBD in S4, it was decided that S4 starts using DGA immediately to reduce the inflammation. (Also, all other information presented in this application, including all other experiments and dose response analyses were available already, except for Example 1 g.) Initial dose was set relatively high because the inflammation was very severe and because it is known from all other experiments that there were no negative effects for S4 from the DGA Activation. 3×200 mg mixed into 2 dl of water was taken 3 times during Saturday, first dose at 0300 pm, next dose 2 hours thereafter and the last dose 4 hours after the second dose, i.e. at 0900 pm. Inflammatory symptoms remained high but fever reduced from 36.80 Celsius (before DGA activation) to 36.03 by 0939 pm. Paracetamol (1000 mg) was taken after the last fever measurement thus not affecting the decline. Another paracetamol was taken earlier the day at 0346 pm.

[2] = test system: corticosterone, IL-6
[3] = test system: rat primary optic nerve astrocytes; assay: ROS generation (CellROX Green) in rat primary optic nerve astrocytes, Example 2; assay type: cell-based; details: 14 μM
Description: For proving the efficacy of DGA Activation in reducing ROS in infectious disorders an in vitro study using rat primary optic nerve astrocytes has been conducted. […] As an important part of the study the cell viability was estimated 6 hours after tBHP administration by two methods, i.e. LDH and MTT assays. Cell viability was measured using the in-house MTT assay (of Experimentica Ltd., Finland) and CytoTox96 non-radioactive cytotoxicity assay (G1780, Promega) in response to oxidative stress primary optic nerve astrocytes. The production of reactive oxygen species (ROS) was measured using CellROX Green (Invitrogen) and isolate RNA in RNALater solution (Ambion). Primary optical nerve astrocytes where obtained from 4-week-old male Wister rats (6 animals' altogether) and where cultured to obtain sufficient amount of cells for the experiment. In the experiment cells where plated at 5000 cells per well and allowed to adhere for 24 hrs prior to the administration of compounds for 48 hrs (replenished every 24 hrs). After 24 hrs the compounds were removed, and readded with new medium for 1 hr, prior to the administration of 85 μM tBHP (FIG. 3c). MTT and LDH assay were performed after 6 hrs and ROS detection using CellROX green was performed over a time course of 4 hrs. D-glyceric acid was mixed into the medium in beforehand in soluble calcium salt format (DGAcs). After mixing the calcium is liberated to the medium from the D-glyceric acid. D-glycerate is formed.

[4] = test system: HO-1, CYP2B6, PGC-1a; assay: Gene expression in primary human hepatocytes after 48 h+2 h; assay type: cell-based
Description: FIG. 13b: Gene Expression results from Primary Hepatocytes after 48 h+2 h of the DGA Activation vs. 0-control. […] Combined test for PGC-1a yielded P-value of some 10%. Primary human hepatocytes were purchased from Celsis In Vitro Technologies (1450 South Rolling Road Baltimore, Md. 21227, USA). Primary hepatocytes were received from three different post mortem human donators. […] This is also the case for DOO.
In this experimental model the cells in the 0-Control and in the two DGA Activation groups were normally and identically incubated before DGA Activation. Incubation the medium is changed every 24 hours. When the 48 hour+2 hour DGA Activation started, the only difference was the addition of either 1.4 μM or 14 μM of DGA to the used medium. The D-glyceric acid calcium salt was carefully mixed in to medium before the administration. Thus, it was separated from the calcium salt.

[5] = test system: acute bowels inflammation caused by diverticulitis; assay: Healing from acute inflammatory bowels disease (diverticulitis) in S4, Example 1e; assay type: in vivo, human
Text: In Example 1e the resolution of gastrointestinal tract infection in another subject 4 (S4) has been shown. Like in S1 also in S4 the HO-1 pathway is clearly activated by the DGA Activation. This is indirectly shown by the clear reduction of blood bilirubin in Table 1e. […] During last few years these seldom but acute inflammations in the gastrointestinal tract have been mostly in the colon and caused by inflammation in Colonic diverticula. […] The only functioning therapy for inflammatory bowels disease has been the administration of strong intravenous antibiotics.
Like other tests with unhealthy humans also this test was done because there were no other efficient substances available. When symptoms of increased bowels inflammation/diverticulosis started S4 was on holiday abroad with very difficult access to any specialized doctor not to mention any hospital. […] Simultaneously with inflammatory symptoms and maybe partially enhancing them S4 experienced constipation.
By Saturday night on the 4th day of gradually increasing acute inflammation in the colon, S4 decided to test whether DGA Activation in combination with paracetamol would assist in resolving this already rather serious inflammation. There were no other available options at that moment. This decision was also supported by confidential information received on positive results with S1 (Examples 1b and 1c).
Saturday night at 0737 pm first 260 mg of D-glyceric acid calcium salt mixed into water was taken with 2×500 mg of paracetamol. Another additional 260 mg dose of DGAcs mixed into water was taken the same night at 1020 pm. Altogether the starting dose was 9 mg/kg i.e. relatively high. High initial dose was chosen because of high level of inflammation.

[6] = 1.4 μM, combined data, P-value approximately 1%

Structure (SMILES): O=C(O)[C@H](O)CO [DGA, D-glyceric acid]
- time to restoring defecation ([1]; S4): 12 to 16 h
- Blood CRP ([1]; S4, Friday 1100 am): 11
- CRP level ([1]; S4, Monday 0030 pm, 3×200 mg four times a day): 85
- fever ([1]; S4, Saturday 0939 pm after 3 doses of 3×200 mg, 36.80 before): 36.03 Celsius
- fever ([1]; S4, Sunday 0115 pm, normal 36.1): 35.83
- fever ([1]; S4, Sunday 0145): 36.16
- CRP ([1]; S4, Wednesday noon, without antibiotics): 22
- side effects ([1]; in vivo): did not cause any side effects
- decline of blood corticosterone compared to 0-Control ([2]; 9 mg/kg of body weight/day of DGAcs in feed, 3 weeks, N=30, p-value=0.021): ~40%
- fat formation ([2]; 3-5 week feeding study, N=144): fat formation is not increased
- average IL-6 levels compared to 0-control ([2]; 21-28 days, not statistically significant, p-value=0.12): lower average IL-6 levels
- late mortality ([2]; earlier broiler chicken experiment without infection, 1-2% in other groups): no mortality in DGA groups
- ROS generation vs 0-controls ([3]; 0 tBHP (healthy conditions)): lower
- increase of average ROS generation in 15 minutes, tBHP group compared to without tBHP ([3]; 85 μM tBHP, 0 min to 15 min, control approximately 20%): approximately 30%
- ROS level vs control groups ([3]; 15, 30 and 60 minutes after bolus 85 μM tBHP): statistically significantly lower
- CYP2B6 expression vs control [4, 6]: statistically significantly different from control
- HO-1 expression vs control [4, 6]: statistically significantly different from control
- PGC-1a expression vs control ([4]; combined test P-value of some 10%): activated compared to control
- increase of HO-1 expression ([4]; primary human hepatocytes in vitro): 50-80%
- time needed to turn the inflammatory process clearly down ([5]; S4): ~36 h
- defecation ([5]; S4, Sunday 0910 am, morning after 2×260 mg DGAcs with 2×500 mg paracetamol): could defecate (almost normally) for the first time in 3 days
- pains in bowels ([5]; S4, Wednesday morning, after 240 mg twice a day): All the pains in bowels had disappeared
